Experiment [1] concerns Mycobacterium tuberculosis. The experiment in a line: Antimicrobial activity against Mycobacterium tuberculosis H37Rv ATCC 27294 at 6.25 ug/mL by broth microdilution assay. Format: functional.
Experiment [2] concerns Mycobacterium tuberculosis. The experiment in a line: Antimicrobial activity against Mycobacterium tuberculosis H37Rv ATCC 27294 by microplate Almar blue assay. Format: functional. The conditions noted are these: Mycobacterium tuberculosis, H37Rv ATCC 27294; read-out: MIC.
The next experiment concerns Vero. In words: Cytotoxicity against african green monkey Vero cells at after 72 hrs by MTT assay. Format: cell-based, Chlorocebus sabaeus. Particulars: Chlorocebus sabaeus, Vero, 72 h; read-out: IC50.
Experiment [3] is described as follows: Selective index, the ratio of IC50 in the african green monkey Vero cells to the MIC to Mycobacterium tuberculosis H37Rv ATCC 27294. Format: functional.

Structures are written as SMILES. Values after ≈ are worked out from the molar mass of the structure shown.

Molecule `N=C1NC[C@H](Cc2ccccc2)N1CC1CCCN1C[C@H](Cc1ccccc1)N1C[C@H](Cc2ccccc2)N(CCC2CCCCC2)C1=N` (stereo partly drawn) had an inhibition at 6.25 µg/mL in experiment [1] of 94%. Also, the MIC in experiment [2] was determined as 3.9 µg/mL (≈ 5.91 µM). The concentration for half-maximal inhibition (IC50) with Vero came to 13.9 µg/mL (≈ 21.1 µM). In addition, the “Selectivity Index” value in experiment [3] is 3.8.
For `N=C1NC[C@H](Cc2ccccc2)N1CC1CCCN1C[C@H](Cc1ccccc1)N1C[C@H](Cc2ccccc2)N(CCC2CC3CCC2C3)C1=N` (stereo partly drawn), in that order: 94%, 7.8 µg/mL (≈ 11.6 µM), 15.5 µg/mL (≈ 23 µM) and 1.98.
In the same order, the values of `CC(C)(C)C1CCC(CN2C(=N)N([C@@H](Cc3ccccc3)CN3CCCC3CN3C(=N)NC[C@@H]3Cc3ccccc3)C[C@@H]2Cc2ccccc2)CC1` (stereo partly drawn) are 94%, 7.8 µg/mL (≈ 11.1 µM), 15.2 µg/mL (≈ 21.7 µM) and 1.95.
On to `S=C1NC[C@H](Cc2ccccc2)N1CC1CCCN1C[C@H](Cc1ccccc1)N1C[C@H](Cc2ccccc2)N(CC2CCCCC2)C1=S` (stereo partly drawn), for which the inhibition at 6.25 µg/mL in experiment [1] is 97%. For the same molecule, the MIC in experiment [2] came to 3.9 µg/mL (≈ 5.73 µM). Moreover, the IC50 with Vero was determined as 8.47 µg/mL (≈ 12.5 µM). Further, in experiment [3], the “Selectivity Index” value is 2.2.
`CC(C)[C@H]1CNC(=S)N1CC1CCCN1C[C@H](Cc1ccccc1)N1C[C@H](Cc2ccccc2)N(CCc2ccccc2)C1=S` (stereo partly drawn) displayed an inhibition at 6.25 µg/mL in experiment [1] of 90%.
`c1ccc(CCN2CCN([C@@H](CC3CCCCC3)CN3CCCC3CN3CCNC[C@@H]3Cc3ccccc3)C[C@@H]2Cc2ccccc2)cc1` (stereo partly drawn): in experiment [1], the inhibition at 6.25 µg/mL was determined as 100%. Also, the MIC in experiment [2] is 2 µg/mL (≈ 3.02 µM). For the same molecule, the IC50 in the experiment on Vero came out at 0.99 µg/mL (≈ 1.5 µM). Further, the “Selectivity Index” value in experiment [3] was determined as 0.5.
For `c1ccc(C[C@H]2CNCCN2CC2CCCN2C[C@H](Cc2ccccc2)N2CCN(CCCCC3CCCCC3)[C@@H](Cc3ccccc3)C2)cc1` (stereo partly drawn), in that order: 99%, 2 µg/mL (≈ 2.9 µM), 1 µg/mL (≈ 1.45 µM) and 0.5.
In the same order, the values of `c1ccc(C[C@H]2CNCCN2CC2CCCN2C[C@H](Cc2ccccc2)N2CCN(CC34CC5CC(CC(C5)C3)C4)[C@@H](Cc3ccccc3)C2)cc1` (stereo partly drawn) are 97%, 2 µg/mL (≈ 2.86 µM), 0.97 µg/mL (≈ 1.39 µM) and 0.49.
In the same order, the values of `c1ccc(C[C@H]2CNCCN2CC2CCCN2C[C@H](Cc2ccccc2)N2CCN(CCCC3CCCCC3)[C@@H](Cc3ccccc3)C2)cc1` (stereo partly drawn) are 99%, 2 µg/mL (≈ 2.96 µM), 0.94 µg/mL (≈ 1.39 µM) and 0.47.
Consider `CC(C)CCCN1CCN([C@@H](Cc2ccccc2)CN2CCCC2CN2CCNC[C@@H]2Cc2ccccc2)C[C@@H]1Cc1ccccc1` (stereo partly drawn), for which, in experiment [1], 6.25 µg/mL produced 99% inhibition. Also, the minimum inhibitory concentration (MIC) in experiment [2] was found to be 2 µg/mL (≈ 3.14 µM). Besides, in the experiment on Vero, the IC50 stood at 0.89 µg/mL (≈ 1.4 µM). Besides, in experiment [3], the “Selectivity Index” value came out at 0.45.
For `Brc1cccc(CCCN2CCN([C@@H](Cc3ccccc3)CN3CCCC3CN3CCNC[C@@H]3Cc3ccccc3)C[C@@H]2Cc2ccccc2)c1` (stereo partly drawn), in that order: 99%, 3.9 µg/mL (≈ 5.21 µM), 1.12 µg/mL (≈ 1.5 µM) and 0.29.
With `FC(F)(F)c1cccc(CCN2CCN([C@@H](Cc3ccccc3)CN3CCCC3CN3CCNC[C@@H]3Cc3ccccc3)C[C@@H]2Cc2ccccc2)c1` (stereo partly drawn), testing at 6.25 µg/mL in experiment [1] gave an inhibition of 99%. Besides, the MIC in experiment [2] was 3.9 µg/mL (≈ 5.39 µM). Besides, the IC50 in the experiment with Vero amounted to 1.12 µg/mL (≈ 1.55 µM). Moreover, the “Selectivity Index” value in experiment [3] is on record as 0.29.
In the case of `Oc1ccc(CCN2CCN([C@@H](Cc3ccccc3)CN3CCCC3CN3CCNC[C@@H]3Cc3ccccc3)C[C@@H]2Cc2ccccc2)cc1` (stereo partly drawn), at 6.25 µg/mL the inhibition in experiment [1] was 99%. Further, the MIC in experiment [2] was found to be 3.9 µg/mL (≈ 5.8 µM). In addition, the IC50 in the experiment with Vero stood at 1.11 µg/mL (≈ 1.65 µM). In experiment [3], the “Selectivity Index” value was 0.28.
Regarding `Cc1cccc(CCN2CCN([C@@H](Cc3ccccc3)CN3CCCC3CN3CCNC[C@@H]3Cc3ccccc3)C[C@@H]2Cc2ccccc2)c1` (stereo partly drawn), at 6.25 µg/mL the inhibition in experiment [1] was 99%. The MIC in experiment [2] turned out to be 3.9 µg/mL (≈ 5.82 µM). Also, in the experiment with Vero, the IC50 was 1.05 µg/mL (≈ 1.57 µM). Further, the “Selectivity Index” value in experiment [3] was 0.27.
On to `NC[C@H](Cc1ccccc1)NC[C@@H]1CCCN1C[C@H](Cc1ccccc1)NC[C@H](Cc1ccccc1)NCCCC1CCCCC1`, for which, in experiment [1], 6.25 µg/mL produced 99% inhibition. The MIC in experiment [2] stood at 3.13 µg/mL (≈ 5.02 µM).
In turn, `CCC(C)CCN1C(=N)N([C@@H](Cc2ccccc2)CN2CCCC2CN2C(=N)NC[C@@H]2Cc2ccccc2)C[C@@H]1Cc1ccccc1` (stereo partly drawn) displayed an inhibition at 6.25 µg/mL in experiment [1] of 91%. The MIC in experiment [2] stood at 7.8 µg/mL (≈ 12.3 µM). Further, the IC50 in the experiment on Vero came to 32.3 µg/mL (≈ 50.9 µM). The “Selectivity Index” value in experiment [3] was 4.1.
Regarding `CC(C)(C)C1CCC(CN2CCN([C@@H](Cc3ccccc3)CN3CCCC3CN3CCNC[C@@H]3Cc3ccccc3)C[C@@H]2Cc2ccccc2)CC1` (stereo partly drawn), in experiment [1], the inhibition at 6.25 µg/mL amounted to 97%. The MIC in experiment [2] came out at 2 µg/mL (≈ 2.84 µM). Besides, the IC50 with Vero was 1.15 µg/mL (≈ 1.63 µM). Also, the “Selectivity Index” value in experiment [3] was found to be 0.58.
With `OCC(CN1CCN([C@@H](Cc2ccccc2)CN2CCCC2CN2CCNC[C@@H]2Cc2ccccc2)C[C@@H]1Cc1ccccc1)c1ccccc1` (stereo partly drawn), in experiment [1], the inhibition at 6.25 µg/mL worked out at 99%. In experiment [2], the MIC turned out to be 20 µg/mL (≈ 29.2 µM). Further, the IC50 with Vero came to 1.08 µg/mL (≈ 1.57 µM).
Take `NC[C@H](Cc1ccccc1)NC[C@@H]1CCCN1C[C@H](Cc1ccccc1)NC[C@H](Cc1ccccc1)NCCC1CC2CCC1C2` (stereo partly drawn): the MIC in experiment [2] worked out at 3.13 µg/mL (≈ 5.03 µM). The IC50 in the experiment with Vero was 1.03 µg/mL (≈ 1.66 µM).

The record behind these values is ChEMBL document CHEMBL1153803, “Parallel synthesis of chiral pentaamines and pyrrolidine containing bis-heterocyclic libraries. Multiple scaffolds with multiple building blocks: a double diversity for the identification of new antitubercular compounds” (Bioorg Med Chem Lett, 2009).
